Measurements: patent US8658646B2, “Pyrrolopyrazine kinase inhibitors” (Hoffmann-LaRoche Inc., priority 2011, dated 2014)
Values joined by “and” are separate entries in the source; they are usually repeats but may differ in a detail not shown here. Equal values may be shown once.

Columns and labels:
[1] = target: T1, JAK3: Recombinant human kinase domain (Homo sapiens, UniProt P52333); assay: Determination of IC50 of Janus Kinase (JAK) inhibition, radioactive end-point 33P-ATP assay, JAK3; type: biochemical; details: ATP 1.5 uM, peptide 50 uM, 20 minutes, read-out: JAK3-INHIB-DR/v1~NO ADDITIVE~Enzyme_Conc = 100
T1 construct: JAK3: Recombinant human kinase domain from Millipore (Cat #14-629) or prepared; purchased Millipore 14-629
T1 sequence (P52333 822-1111 limits assumed): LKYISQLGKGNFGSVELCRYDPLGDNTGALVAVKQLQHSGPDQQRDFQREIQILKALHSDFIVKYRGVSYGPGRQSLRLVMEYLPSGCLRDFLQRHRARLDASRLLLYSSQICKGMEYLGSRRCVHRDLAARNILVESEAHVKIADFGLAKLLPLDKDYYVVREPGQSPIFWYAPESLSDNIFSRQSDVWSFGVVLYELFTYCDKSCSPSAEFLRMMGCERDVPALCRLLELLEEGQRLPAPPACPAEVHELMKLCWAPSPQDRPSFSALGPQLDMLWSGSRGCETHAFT

[2] = target: T2, recombinant human SYK360-635 (Homo sapiens, UniProt P43405); assay: Determination of IC50 of Spleen Tyrosine Kinase (SYK) inhibition, 33P ATP filtration assay; type: biochemical; details: SYK aa 360-635 0.5 nM; ATP 20 μM, peptide 5 μM, 0.1% BSA; read-out: SYK_ENZYME_FILTRATION/v1, BSA
T2 construct: made in house
Procedure: All concentrations were final in the reaction mixture and all incubations were carried at room temperature. […] SYK Assay Information Determination of IC50 of Spleen Tyrosine Kinase (SYK) Inhibition:
SYK kinase assay is a standard kinase assay adapted to a 96 well plate format. This assay is performed in 96-well format for IC50 determination with 8 samples which represented 10 half log dilutions and a 40 μL reaction volume. The assay measures the incorporation of radiolabeled ^33P γATP into an N-terminally biotinylated peptide substrate, derived from naturally occurring phosphoacceptor consensus sequence (Biotin-11aa DY*E). […] Experimental Method:
DMSO and the mixture was incubated for 10 min at RT.
The kinase reaction was initiated by the addition of 10 μL 4× substrate cocktail containing the DYE peptide substrate [0 or 5 μM], ATP [20 μM] and ^33PγATP [2 μCi/r×n]. After incubation at 30° C. for 15 min, the reaction was terminated by the transfer of 25 μL pf the reaction sample to a 96 well 0.65 μm Millipore MADVNOB membrane/plate containing 200 μL 5 mM EDTA and 20% Streptavidine coated beads in PBS.
The unbound radionucleotides were washed under vacuum with 3×250 μL 2M NaCl; 2×250 μL 2M NaCl+1% phosphoric acid; 1×250 μL H2O. After the last wash membrane/plates were transferred to an adaptor plate, heat dried for 15 min at 60° C., and 50 μL scintillation cocktail was added to each well and 4 h later the amount of radioactivity was counted in a top counter.

SMILES | IC50 [1] | IC50 [2]
COC[C@H](C)NC(=O)c1c[nH]c2ncc(-c3nn(CCn4cccn4)c4cc(F)ccc34)nc12 [Example I-244, 2-[6-Fluoro-1-(2-pyrazol-1-yl-ethyl)-1H-indazol-3-yl]-5H-pyrrolo[2,3-b]pyrazine-7-carboxylic acid ((S)-2-methoxy-1-methyl-ethyl)-amide] | 5.46 nM | 324 nM
CC(C)NC(=O)c1c[nH]c2ncc(-c3nn(C4COC4)c4cc(F)ccc34)nc12 [Example I-102, 2-(6-Fluoro-1-oxetan-3-yl-1H-indazol-3-yl)-5H-pyrrolo[2,3-b]pyrazine-7-carboxylic acid isopropylamide] | 1.63 nM | 18.7 nM
CC(C)(C)NC(=O)c1c[nH]c2ncc(-c3cccc4[nH]ncc34)nc12 [Example I-399, 2-(1H-Indazol-4-yl)-5H-pyrrolo[2,3-b]pyrazine-7-carboxylic acid tert-butylamide] | 18.1 nM | 4.73 nM
Cc1ccc2c(-c3cnc4[nH]cc(C(=O)N[C@H](C)C(=O)N5CC(C#N)C5)c4n3)ncn2c1 [Example I-31, 2-(6-Methyl-imidazo[1,5-a]pyridin-1-yl)-5H-pyrrolo[2,3-b]pyrazine-7-carboxylic acid [(R)-2-(3-cyano-azetidin-1-yl)-1-methyl-2-oxo-ethyl]-amide] | 0.335 nM | 53.1 nM
Cn1nc(-c2cnc3[nH]cc(C(=O)NC4(c5ccc(Br)cc5)CC4)c3n2)c2ccc(F)cc21 [Example I-208, 2-(6-Fluoro-1-methyl-1H-indazol-3-yl)-5H-pyrrolo[2,3-b]pyrazine-7-carboxylic acid [1-(4-bromo-phenyl)-cyclopropyl]-amide] | 77.7 nM | 4020 nM and > 10000 nM

More lines, now with the values ahead:

IC50 [1] | IC50 [2] | SMILES
0.535 nM | 11 nM | C[C@H](NC(=O)c1c[nH]c2ncc(-c3nn(C)c4cc(F)ccc34)nc12)C(C)(C)C [Example I-45, 2-(6-Fluoro-1-methyl-1H-indazol-3-yl)-5H-pyrrolo[2,3-b]pyrazine-7-carboxylic acid ((S)-1,2,2-trimethyl-propyl)-amide]
4.65 nM | 13.5 nM | CC(O)C(C)NC(=O)c1c[nH]c2ncc(-c3nn(C)c4cc(Cl)ccc34)nc12 (stereo not drawn) [Example I-172, 2-(6-Chloro-1-methyl-1H-indazol-3-yl)-5H-pyrrolo[2,3-b]pyrazine-7-carboxylic acid (2-hydroxy-1-methyl-propyl)-amide]
12.8 nM | 3.08 nM | Cn1nc(-c2cnc3[nH]cc(C(=O)NC4(C)CC4)c3n2)c2ccc(F)cc21 [Example I-378, 2-(6-Fluoro-1-methyl-1H-indazol-3-yl)-5H-pyrrolo[2,3-b]pyrazine-7-carboxylic acid (1-methyl-cyclopropyl)-amide]
3.47 nM | 23.1 nM | Cn1nc(-c2cnc3[nH]cc(C(=O)N[C@@H]4CC[C@H](O)C4)c3n2)c2ccc(Cl)cc21 [Example I-151, 2-(6-Chloro-1-methyl-1H-indazol-3-yl)-5H-pyrrolo[2,3-b]pyrazine-7-carboxylic acid ((1R,3S)-3-hydroxy-cyclopentyl)-amide]
4.46 nM | 10.9 nM | CC(C)NC(=O)c1c[nH]c2ncc(-c3nn(Cc4nccn4C)c4cc(Cl)ccc34)nc12 [Example I-311, 2-[6-Chloro-1-(1-methyl-1H-imidazol-2-ylmethyl)-1H-indazol-3-yl]-5H-pyrrolo[2,3-b]pyrazine-7-carboxylic acid isopropylamide]
1.61 nM | 120 nM | C[C@@H](O)[C@@H](NC(=O)c1c[nH]c2ncc(-c3nn(C)c4cc(F)ccc34)nc12)C(=O)N1CC(F)C1 [Example I-198, 2-(6-Fluoro-1-methyl-1H-indazol-3-yl)-5H-pyrrolo[2,3-b]pyrazine-7-carboxylic acid [(1R,2R)-1-(3-fluoro-azetidine-1-carbonyl)-2-hydroxy-propyl]-amide]
16.9 nM | 56.4 nM | CC(NC(=O)c1c[nH]c2ncc(-c3nn(C)c4cc(F)ccc34)nc12)c1ccno1 (stereo not drawn) [Example I-55, 2-(6-Fluoro-1-methyl-1H-indazol-3-yl)-5H-pyrrolo[2,3-b]pyrazine-7-carboxylic acid (1-isoxazol-5-yl-ethyl)-amide]
